Each molecule was assayed against T1, human Werner helicase (WRN-BV08, Uniprot Q14191, amino acids 517-1235 with L1074F point mutation) (Homo sapiens, UniProt Q14191, L1074F) (assay: WRN (BV08) ADP-Glo Assay). Conditions: 0.15 nM WRN, 5 μM ATP, 0.1 nM DNA duplex, 15 min preincubation, 60 min at 25° C., pH 7.5, 1% DMSO; read-out: ADP-Glo_hWRN_IC50.
T1 construct: Uniprot Q14191, amino acids 517-1235 with L1074F point mutation; TEV-cleavable 8×His (C, cleaved yes); made in house; host or cells: Sf9 insect cells (baculovirus)
T1 sequence (Q14191 with tags, fused parts or gaps L1074F limits assumed): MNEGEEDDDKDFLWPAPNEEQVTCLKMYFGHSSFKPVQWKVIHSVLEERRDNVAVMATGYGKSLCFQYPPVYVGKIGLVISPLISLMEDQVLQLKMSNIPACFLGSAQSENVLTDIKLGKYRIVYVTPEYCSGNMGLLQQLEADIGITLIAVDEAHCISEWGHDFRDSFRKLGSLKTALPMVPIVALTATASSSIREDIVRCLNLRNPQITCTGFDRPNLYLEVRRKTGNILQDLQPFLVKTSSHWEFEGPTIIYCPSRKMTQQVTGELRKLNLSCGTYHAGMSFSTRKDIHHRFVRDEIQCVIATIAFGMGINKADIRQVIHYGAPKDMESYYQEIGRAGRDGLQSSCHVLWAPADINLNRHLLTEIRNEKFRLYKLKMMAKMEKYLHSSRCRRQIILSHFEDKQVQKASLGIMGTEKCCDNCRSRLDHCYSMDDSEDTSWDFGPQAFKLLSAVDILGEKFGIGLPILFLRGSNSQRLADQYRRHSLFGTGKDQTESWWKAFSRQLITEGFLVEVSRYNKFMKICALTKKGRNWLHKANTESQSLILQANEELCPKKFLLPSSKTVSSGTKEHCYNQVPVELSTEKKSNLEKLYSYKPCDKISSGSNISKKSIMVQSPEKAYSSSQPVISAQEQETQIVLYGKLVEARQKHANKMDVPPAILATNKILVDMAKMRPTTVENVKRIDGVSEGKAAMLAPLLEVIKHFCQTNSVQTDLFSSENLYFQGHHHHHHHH
Assay type: biochemical
Source text: Example 2: WRN (BV08) ADP-Glo Assay Protocol
Bovine skin gelatin (BSG), dimethyl sulfoxide (DMSO), Pluronic F-127 and Tris(2-carboxyethyl)phosphine hydrochloride solution (TCEP) were purchased from Sigma-Aldrich at the highest level of purity possible. Bicine buffer solution was purchased from Alfa Aesar and compound NSC-617145 was purchased from Tocris. DNA duplex was synthesized at BGI (Shenzhen, China) and was composed of strand 1 with the sequence 5′-[…]-3′ (SEQ ID NO.: 1) and strand 2 with the sequence 5′-[…]-3′ (SEQ ID NO.: 2). DNA strands were annealed by heating to 95° C. for 5 minutes followed by slow cooling to room temperature. Compounds in 100% DMSO (0.1 μl) were spotted into a 384-well white polystyrene Optiplate-384 (Perkin Elmer) assay plate using a LabCyte Echo 550 (Agilent). DMSO (0.1 μl) was added to columns 12, rows A-H and column 24, rows I-P for the maximum signal control. Compound NSC-617145 (0.1 μl) was added to columns 12, rows I-P and 24, rows A-H for the minimum signal control (100% inhibition). Compounds/DMSO were preincubated for 15 minutes at 25° C. with 5 uL 2×WRN (BV08), prepared as described below, in assay buffer containing 20 mM Bicine (pH=7.5), 1 mM MgCl2, 10 mM KCl, 0.1% Pluronic F-127, 0.005% BSG, 1 mM TCEP. The reaction was initiated by the addition of 5 μl 2× substrate mixture in assay buffer and incubated for 60 minutes at 25° C. The final concentrations of the assay components were 0.15 nM WRN, 5 μM ATP, and 0.1 nM DNA duplex. The final DMSO concentration was 1% and the reference compound concentration (NSC-617145) used for the minimal signal control was 20 μM. The reaction was stopped by the addition of the ADP-Glo Kit components (Promega) as directed and the relative luminescence units (RLU) were read on an Envision 2104 (Perkin Elmer).
% Inhibition Calculation:
Where RLU=relative luminescence units, sample=signal in sample well, and MIN and MAX are the respective minimum and maximum signal controls.
Four-Parameter IC50 Fit Equation:
Where top and bottom are normally allowed to float but may be fixed at 100 or 0 respectively in a 3-parameter fit. Y is the % inhibition and X is the compound concentration.
Molecular Biology and virus production. The DNA encoding human Werner helicase (Uniprot Q14191, amino acids 517-1235 with L1074F point mutation) was generated with codon-optimization for E. coli expression and subcloned into the pFastBac vector with a TEV cleavable 8×His tag (WRN-BV08). The baculovirus from the expression plasmid WRN-BV08 was generated from transfection and amplification following the manufacturer's instructions.
Sf9 cells grown in SF900II media were infected with 1:200 WRN-BV08 P2 virus and incubated for protein expression for 72 h at 27° C. The WRN protein was purified using the following protocol. The cell pellets were thawed and resuspended in buffer A (50 mM Tris, pH 7.5, 500 mM NaCl, 1 mM TCEP, 10% Glycerol) supplemented with 0.5% CHAPS, 1 mM [COMPOUND LEFT OUT], 1 μg/mL Leupeptin, 1 μg/mL Pepstatin, and the Pierce Universal Nuclease and cocktail tablet. Cleared lysates were loaded onto a Ni Sepharose™ excel column and washed with buffer A and bound protein was eluted with buffer A supplemented with 300 mM imidazole. The eluted protein was dialyzed against buffer A and digested by His-tagged TEV (1:5 ratio) overnight at 4° C. ZnCl2 was added into the sample at final 15 μM before loading onto a second Ni Sepharose™ excel column. Untagged WRN protein was eluted from the column with buffer A supplemented with 20 mM imidazole, dialyzed overnight into buffer B (50 mM Tris, pH 7.5, 1 mM TCEP, 10% Glycerol) supplemented with 150 mM NaCl and loaded onto a Heparin column. Proteins were eluted with a step gradient of buffer B supplemented with 150 mM, 200 mM, 300 mM and 500 mM NaCl. […]
For `COC(C(=O)N(Cc1ccncc1)C1C=CS(=O)(=O)C1)c1ccc(-c2ccc(F)cc2)cc1` (single isomer, unassigned) [I-72, (2R*)-N-[(3R**)-1,1-dioxo-2,3-dihydro-1lambda6-thiophen-3-yl]-2-{4′-fluoro-[1,1′-biphenyl]-4-yl}-2-methoxy-N-[(pyridin-4-yl)methyl]acetamide], the IC50 was < 0.5 µM.
`O=C(Cc1ccc(-n2cccc2)cc1F)N(Cc1ccncc1)C1C=CS(=O)(=O)C1` (single isomer, unassigned) [I-127] gave an IC50 of 0.5 to 5 µM.
Work on `COc1cc(CN(C(=O)Cc2ccc(-c3ccc(F)cc3O)nc2)C2C=CS(=O)(=O)C2)ccn1` (single isomer, unassigned) [I-130] yielded an IC50 of 0.5 to 5 µM.
`O=C(Cn1cc(-c2ccccc2)cn1)N(Cc1ccncc1)C1C=CS(=O)(=O)C1` (single isomer, unassigned) [I-133] was tested, and the IC50 was 0.5 to 5 µM.
`O=C(Cc1ccc(-n2cccc2)cc1)N(Cc1ccncc1)C1C=CS(=O)(=O)C1` (single isomer, unassigned) [I-193] gave an IC50 of 0.5 to 5 µM.
`COC(C(=O)N(Cc1ccnc(C(C)(C)O)c1)C1C=CS(=O)(=O)C1)c1ccc(-c2ccc(F)cc2)cc1F` (single isomer, unassigned) [I-199, (2R*)-2-{3,4′-difluoro-[1,1′-biphenyl]-4-yl}-N-[(3R**)-1,1-dioxo-2,3-dihydro-1lambda6-thiophen-3-yl]-N-{[2-(2-hydroxypropan-2-yl)pyridin-4-yl]methyl}-2-methoxyacetamide] was tested, and the IC50 was 0.5 to 5 µM.
With `COc1cc(CN(C(=O)C(C(=O)N(C)C)c2ccc(-c3ccc(F)cc3)cc2F)C2C=CS(=O)(=O)C2)ccn1` (single isomer, unassigned) [I-235, (2R**)-2-{3,4′-difluoro-[1,1′-biphenyl]-4-yl}-N-[(3R*)-1,1-dioxo-2,3-dihydro-1lambda6-thiophen-3-yl]-N-[(2-methoxypyridin-4-yl)methyl]-N′,N′-dimethylpropanediamide] the IC50 was 5 to 10 µM.
`CN(C)C(=O)C(C(=O)N(Cc1ccnc(C(C)(C)O)c1)C1C=CS(=O)(=O)C1)c1ccc(-c2ccc(F)cc2)cc1F` (single isomer, unassigned) [I-237, (2R**)-2-{3,4′-difluoro-[1,1′-biphenyl]-4-yl}-N-[(3R*)-1,1-dioxo-2,3-dihydro-1lambda6-thiophen-3-yl]-N-{[2-(2-hydroxypropan-2-yl)pyridin-4-yl]methyl}-N′,N′-dimethylpropanediamide] showed an IC50 of 5 to 10 µM.
In the case of `O=C(Cc1ccc(S(F)(F)(F)(F)F)cc1)N(Cc1nc(C2CC2)cs1)C1C=CS(=O)(=O)C1` (single isomer, unassigned) [I-253], the IC50 is reported as 10 to 50 µM.
`CN(C)C(=O)C(C(=O)N(Cc1ccnc(C(C)(C)O)c1)C1C=CS(=O)(=O)C1)c1ccc(-c2ccc(F)cc2)cc1F` (single isomer, unassigned) [I-258, (2R**)-2-{3,4′-difluoro-[1,1′-biphenyl]-4-yl}-N-[(3R*)-1,1-dioxo-2,3-dihydro-1lambda6-thiophen-3-yl]-N-{[2-(2-hydroxypropan-2-yl)pyridin-4-yl]methyl}-N′,N′-dimethylpropanediamide] was tested, and the IC50 was 5 to 10 µM.
`O=C(Cc1ccc(-n2cccc2)cc1)N(Cc1ccccc1)C1C=CS(=O)(=O)C1` (single isomer, unassigned) [I-262] gave an IC50 of 5 to 10 µM.
In the case of `CN(C)C(=O)C(C(=O)N(Cc1ccnc(C(C)(C)O)c1)C1C=CS(=O)(=O)C1)c1ccc(-c2ccc(F)cc2)cc1` (single isomer, unassigned) [I-264, (2R**)-N-[(3R*)-1,1-dioxo-2,3-dihydro-1lambda6-thiophen-3-yl]-2-{4′-fluoro-[1,1′-biphenyl]-4-yl}-N-{[2-(2-hydroxypropan-2-yl)pyridin-4-yl]methyl}-N′,N′-dimethylpropanediamide], the IC50 is reported as 5 to 10 µM.
With `COc1cc(CN(C(=O)C(C(=O)N(C)C)c2ccc(-c3ccc(F)cc3)cc2F)C2C=CS(=O)(=O)C2)ccn1` (single isomer, unassigned) [I-267, (2R**)-2-{3,4′-difluoro-[1,1′-biphenyl]-4-yl}-N-[(3R*)-1,1-dioxo-2,3-dihydro-1lambda6-thiophen-3-yl]-N-[(2-methoxypyridin-4-yl)methyl]-N′,N′-dimethylpropanediamide] the IC50 was 10 to 50 µM.
With `CN(C)C(=O)C(C(=O)N(Cc1ccnc(C(C)(C)O)c1)C1C=CS(=O)(=O)C1)c1ccc(-c2ccc(F)cc2)cc1` (single isomer, unassigned) [I-271, (2R**)-N-[(3R*)-1,1-dioxo-2,3-dihydro-1lambda6-thiophen-3-yl]-2-{4′-fluoro-[1,1′-biphenyl]-4-yl}-N-{[2-(2-hydroxypropan-2-yl)pyridin-4-yl]methyl}-N′,N′-dimethylpropanediamide] the IC50 was 5 to 10 µM.
Work on `O=C(Cn1cc(-c2ccccc2)cn1)N(Cc1ccncc1)C1C=CS(=O)(=O)C1` (single isomer, unassigned) [I-281] yielded an IC50 of 10 to 50 µM.
`CC(=O)N(C)C(C(=O)N(Cc1ccncc1)C1C=CS(=O)(=O)C1)c1ccc(-c2ccc(F)cc2)cc1` (single isomer, unassigned) [I-282] was tested, and the IC50 was 10 to 50 µM.
For `CN(C)C(=O)C(C(=O)N(Cc1ccnc(C(C)(C)O)c1)C1C=CS(=O)(=O)C1)c1ccc(-c2ccc(F)cc2)cc1` (single isomer, unassigned) [I-309, (2R**)-N-[(3R*)-1,1-dioxo-2,3-dihydro-1lambda6-thiophen-3-yl]-2-{4′-fluoro-[1,1′-biphenyl]-4-yl}-N-{[2-(2-hydroxypropan-2-yl)pyridin-4-yl]methyl}-N′,N′-dimethylpropanediamide], the IC50 was 10 to 50 µM.
For `COc1cc(CN(C(=O)C(C(=O)N(C)C)c2ccc(-c3ccc(F)cc3)cc2F)C2C=CS(=O)(=O)C2)ccn1` (single isomer, unassigned) [I-312, (2R**)-2-{3,4′-difluoro-[1,1′-biphenyl]-4-yl}-N-[(3R*)-1,1-dioxo-2,3-dihydro-1lambda6-thiophen-3-yl]-N-[(2-methoxypyridin-4-yl)methyl]-N′,N′-dimethylpropanediamide], the IC50 was > 50 µM.
With `COc1cc(CN(C(=O)Cc2ccc(-n3cccc3C)cc2F)C2C=CS(=O)(=O)C2)ccn1` (single isomer, unassigned) [I-329] the IC50 was 10 to 50 µM.
`COC(C(=O)N(Cc1ccncc1)C1C=CS(=O)(=O)C1)c1ccc(-c2ccc(F)cc2)cc1` (single isomer, unassigned) [I-330, (2R*)-N-[(3R**)-1,1-dioxo-2,3-dihydro-1lambda6-thiophen-3-yl]-2-{4′-fluoro-[1,1′-biphenyl]-4-yl}-2-methoxy-N-[(pyridin-4-yl)methyl]acetamide] showed an IC50 of 10 to 50 µM.
`CC(C)(O)c1cc(CN(C(=O)Cc2ccc(-c3ccc(F)c(F)c3)cc2F)C2C=CS(=O)(=O)C2)ccn1` (single isomer, unassigned) [I-332] was tested, and the IC50 was 10 to 50 µM.
In the case of `O=C(Cc1ccc(S(F)(F)(F)(F)F)cc1)N(Cc1ccncc1)C1C=CS(=O)(=O)C1` (single isomer, unassigned) [I-336], the IC50 is reported as 10 to 50 µM.
Work on `CN(C)C(=O)C(C(=O)N(Cc1ccnc(C(C)(C)O)c1)C1C=CS(=O)(=O)C1)c1ccc(-c2ccc(F)cc2)cc1F` (single isomer, unassigned) [I-340, (2R**)-2-{3,4′-difluoro-[1,1′-biphenyl]-4-yl}-N-[(3R*)-1,1-dioxo-2,3-dihydro-1lambda6-thiophen-3-yl]-N-{[2-(2-hydroxypropan-2-yl)pyridin-4-yl]methyl}-N′,N′-dimethylpropanediamide] yielded an IC50 of 10 to 50 µM.

Reference: patent US20260297070A1, “CYCLIC [COMPOUND LEFT OUT] WRN INHIBITORS” (Nimbus Wadjet, Inc., priority 2023, published 2026)
